Key:
Trypanosoma cruzi [1] = assay: GSK_TCAKS: pIC50 Trypanosoma cruzi viability assay using beta-GAL activity. This assay was run at single shot at 5uM compound concentration per well. The biological reagents consisted of NIH-3T3 host cells and trypomastigotes parasitic cells; both cell types were set to a 3.3 * 10^5 cells/mL dilution in assay DMEM by means of a CASY cell counter device using a 60um capillary. 6 uL of the mixture were dispensed per well (about 1 * 10^3 host-cells and 1 * 10^3 parasites) with a Multidrop Combi dispenser. […] In all wells, the percentage of DMSO never exceeded 0.5%. Plates incubated for four days at 37C, 5% CO2. The substrate used for the assay fluorescence intensity (FLINT) readout was resorufin-beta-D-galactopiranoside (Sigma-Aldrich) at 5uM per well. It was diluted in PBS supplemented with the soft detergent Igepal (Fluka).; format: functional, organism-based, Mus musculus; settings: Tulahuen, NIH3T3
Trypanosoma cruzi [2] = assay: (§1) GSK_TCAKS: pIC50 Trypanosoma cruzi Imaging: Infected Cells. […] Cells were then washed once with PBS before infection. T. cruzi trypomastigotes, collected at days 5 to 8 after infection from LLC-MK2 parasite infected cultures, were allowed to swim out for 4h at 37C from a centrifuged pellet (2,500 rpm/10 min/room temperature). Trypomastigotes were then collected and counted in a CASY Cell Counter. Trypomastigotes, in supplemented DMEM, were added to H9c2 cultures in a multiplicity of infection of 1 and incubated for 18 h. Cells were washed once with PBS before incubation of the infected H9c2 monolayer with trypsin (Life-Technologies) to detach cells from the flask. Cells were counted in a CASY Cell Counter using a 150 um capillary and their density set at 5 * 10^4 cells per mL in supplemented assay DMEM. Infected H9c2 were dispensed into 384-well poly-lysine coated assay plates at 50uL per well using a Multidrop Combi dispenser. After seeding them, the plates were incubated at 37C, 5% CO2 for 72h. Cultures were then fixed and stained by addition of 50 uL of a solution containing 8% formaldehyde and 4 uM DRAQ5 DNA dye (BioStatus, UK) per well. […] Five images were collected per well for reliable statistical analysis. Automated image analysis was performed with a script developed on Acapella High Content Imaging and Analysis Software (PerkinElmer). Output: percentage of infected cells per well as a second infection marker.; format: functional, organism-based, Rattus norvegicus; settings: H9c2, 4 h
Trypanosoma cruzi [3] = assay: GSK_TCAKS: pIC50 Trypanosoma cruzi Imaging: Amastigotes/Cell. […] Cells were then washed once with PBS before infection. T. cruzi trypomastigotes, collected at days 5 to 8 after infection from LLC-MK2 parasite infected cultures, were allowed to swim out for 4h at 37C from a centrifuged pellet (2,500 rpm/10 min/room temperature). Trypomastigotes were then collected and counted in a CASY Cell Counter. Trypomastigotes, in supplemented DMEM, were added to H9c2 cultures in a multiplicity of infection of 1 and incubated for 18 h. Cells were washed once with PBS before incubation of the infected H9c2 monolayer with trypsin (Life-Technologies) to detach cells from the flask. Cells were counted in a CASY Cell Counter using a 150 um capillary and their density set at 5 * 10^4 cells per mL in supplemented assay DMEM. Infected H9c2 were dispensed into 384-well poly-lysine coated assay plates at 50uL per well using a Multidrop Combi dispenser. After seeding them, the plates were incubated at 37C, 5% CO2 for 72h. Cultures were then fixed and stained by addition of 50 uL of a solution containing 8% formaldehyde and 4 uM DRAQ5 DNA dye (BioStatus, UK) per well. […] Five images were collected per well for reliable statistical analysis. Automated image analysis was performed with a script developed on Acapella High Content Imaging and Analysis Software (PerkinElmer). Output: number of amastigotes per cell as infection level measurement.; format: functional, organism-based, Rattus norvegicus; settings: H9c2, 4 h
Trypanosoma cruzi [4] = assay: as §1, with “H2C9” for “Trypanosoma cruzi”, “H9c2 Host Cardiomyocytes.” for “Infected Cells.”, “Number” for “percentage”, “H9c2 Host Cardiomyocytes nuclei to determine drug-related cytotoxicity.” for “infected cells per well as a second infection marker.”; format: functional, organism-based, Rattus norvegicus; settings: H9c2, 4 h
Leishmania donovani [5] = assay: GSK_TCAKS: pIC50 Leishmania donovani viability assay using fluorescence intensity. Assay plates (1536-well) were prepared by adding 30nL per well of compound. For single shot assay, the final compound concentration was 5uM. […] Briefly, eGFP LdBOB axenic amastigotes were harvested, fixed and counted in a CASY cell counter (Roche-Applied Science). A final concentration of 1.5 * 10^5 cells per well were prepared in amastigote media containing 500 U/mL penicillin/streptomycin (Invitrogen) and 6uL was dispensed to each experimental well using a Multidrop Combi dispenser (Thermo Scientific). 6uL of assay media was dispensed to control columns used as reference for 100% compound response. Following incubation for 72 h at 37C, 5% CO2, 2 uL of resazurin was added to each well at a final concentration of 0.5 mM in phosphate buffered saline (PBS) with IGEPAL (Sigma-Aldrich), 0.05% (v/v).; format: functional, organism-based
Leishmania donovani [6] = assay: (§2) GSK_TCAKS: pIC50 Leishmania donovani Imaging: Infected Macrophages. Assay plates (384-well) were prepared by adding 250nL of compound to each well. For single shot assay, the final compound concentration was 5 uM. […] Automated image analysis was performed with a script developed on Acapella High Content Imaging and Analysis Software (PerkinElmer). Output: Percent of infected macrophage cells were reported for each well.; format: functional, organism-based, Homo sapiens; settings: THP-1
Leishmania donovani [7] = assay: as §2, with “Amastigotes/Macrophages.” for “Infected Macrophages.”, “Average number” for “Percent”, “amastigotes per” for “infected”, “cell” for “cells”; format: functional, organism-based, Homo sapiens; settings: THP-1
Leishmania donovani [8] = assay: as §2, with “THP-1 Host” for “Infected”, “THP-1 cell count” for “Percent of infected macrophage cells”; format: functional, organism-based, Homo sapiens
[9] = system: Trypanosoma brucei brucei; assay: GSK_TCAKS: pIC50 Trypanosoma brucei viability assay using fluorescence intensity. Assay plates (1536-well) were prepared by dispensing 25nL of compound solution per well using an Echo acoustic dispenser (Labcyte).; format: functional, organism-based; settings: Lister 427, 2 h
[10] = system: Trypanosoma brucei brucei; assay: GSK_TCAKS: pIC50 Trypanosoma brucei viability assay using luminiscence. Assay plates (1536-well) were prepared. T. brucei cultures were harvested and counted in a CASY cell counter. A parasite suspension was prepared at a final concentration of 5 * 10^4 cells/mL in complete HMI9 medium and 6uL was dispensed to all wells containing compounds using a Multidrop Combi dispenser. 6uL of HMI9 media with 0.4% DMSO were dispensed to control columns. Plates were incubated for 24 h at 37C, 5% CO2 then tempered for 10 min at room temperature. ATP content was quantified by adding 4 uL of CellTiter-Glo Reagent (Promega) according to the manufacturer's instructions. Luminescence was measured using a ViewLux.; format: functional, organism-based; settings: Lister 427, CASY
[11] = GSK_TCAKS: pIC50 HepG2 human cell line viability assay using luminiscence. […] Seeding density was checked to ensure that new mono-layers were not more than 50% confluent at the time of harvesting. Cell suspension was added to 500 mL of the same medium at a final density of 1.2 * 10^5 cells/mL. This cell suspension was dispensed (25 uL, 3000 cells per well) into 384-well clear-bottom plates using a Multidrop Combi dispenser. Prior to addition of the cell suspension, the screening compounds (250 nL) were pre-dispensed into the plates with an Echo liquid handler. Plates were incubated for 48 h at 37C, 5% CO2. After incubation, plates equilibrated at room temperature for 30 min before proceeding to develop the luminescent signal. The signal developer, CellTiter-Glo Reagent, was allowed to equilibrate at room temperature for 30 min and added to the plates (25uL per well) using a Multidrop Combi dispenser. Plates were left for 10 min at room temperature for stabilization and then read using a ViewLux.; format: toxicity, cell-based
[12] = target: Sterol 14-alpha demethylase (Trypanosoma cruzi (strain CL Brener), UniProt Q7Z1V1); assay: GSK_TCAKS: pIC50 CYP51 from Trypanosoma cruzi.; format: functional
Chain of Sterol 14-alpha demethylase (Q7Z1V1 whole entry): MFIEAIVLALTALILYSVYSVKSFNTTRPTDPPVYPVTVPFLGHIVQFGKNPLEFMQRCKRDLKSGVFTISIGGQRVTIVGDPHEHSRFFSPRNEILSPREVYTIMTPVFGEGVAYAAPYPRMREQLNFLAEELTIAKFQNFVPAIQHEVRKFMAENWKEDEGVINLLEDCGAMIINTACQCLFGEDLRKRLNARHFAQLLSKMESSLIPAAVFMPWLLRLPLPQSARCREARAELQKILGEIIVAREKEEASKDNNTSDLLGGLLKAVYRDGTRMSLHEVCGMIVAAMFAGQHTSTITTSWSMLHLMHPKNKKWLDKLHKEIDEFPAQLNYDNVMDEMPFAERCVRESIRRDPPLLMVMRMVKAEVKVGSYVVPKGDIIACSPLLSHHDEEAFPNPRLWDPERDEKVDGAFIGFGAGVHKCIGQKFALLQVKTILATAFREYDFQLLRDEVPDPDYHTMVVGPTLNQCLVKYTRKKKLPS

SMILES	IC50 (Trypanosoma cruzi [1]) [µM]	IC50 (Trypanosoma cruzi [2]) [µM]	IC50 (Trypanosoma cruzi [3]) [µM]	IC50 (Trypanosoma cruzi [4]) [µM]	IC50 (Leishmania donovani [5]) [µM]	IC50 (Leishmania donovani [6]) [µM]	IC50 (Leishmania donovani [7]) [µM]	IC50 (Leishmania donovani [8]) [µM]	IC50 [9] [µM]	IC50 [10] [µM]	IC50 at 48 h [11] [µM]	IC50 [12] [µM]
CC(c1cc(Cl)cc(Cl)c1)N(C)c1ncc2c(N)nc(N)nc2n1 (centres undefined)	0.0631	0.002	0.001	7.94	0.794	0.794	0.251	31.6	> 39.8	31.6	63.1	39.8
COc1ccnc2[nH]cc(-c3cc(C(=O)N[C@H](CO)c4ccccc4)co3)c12	1.26	20	7.94	0.316	25.1	7.94	2	0.794	0.00501	0.0126	15.8	0.794
COc1ccc(-c2cnc(NC(=O)c3cc(-c4ccccn4)n[nH]3)n2C)cc1	3.55	5.01	3.98	> 50.1	3.98	1	0.794	> 50.1	0.398	10	> 100	15.8
CCCc1cc(C(=O)Nc2ncc(-c3cccc(Br)c3)n2C)[nH]n1	2.51	3.98	2.51	> 50.1	6.31	5.01	3.98	31.6	2.51	1.26	> 100	25.1
Cc1nn2c(NCCCO)c3c(nc2c1-c1cccs1)CCC3	15.8	50.1	5.01	> 50.1	2	> 50.1	> 50.1	> 50.1	0.316	0.398	> 100	25.1
CC(C)S(=O)(=O)c1ccc(-c2cnc(N)c3cc(-c4ccnc(N)n4)ccc23)cc1	0.794	39.8	12.6	0.501	2	1.26	0.501	2.51	0.2	0.251	15.8	15.8
Cc1cc(Oc2cc(Cl)c(Cl)cc2Cl)n2ncnc2n1	5.01	25.1	10	7.94	15.8	15.8	12.6	10	0.794	0.398	31.6	> 100
COc1cnc2ccc(=O)n(CCN3CCC(NC(=O)c4ccc(Cl)cc4)CC3)c2c1	0.126	0.251	0.0794	0.631	2	> 50.1	3.98	> 50.1	0.0794	0.1	> 100	10
CCn1c(-c2nonc2N)nc2c([C@@H](C)O)ncc(O[C@H](CN)c3ccccc3)c21	7.94	10	7.94	0.631	20	5.01	3.16	3.16	0.631	0.794	79.4	25.1
Cc1nn(-c2nc3ccccc3s2)c2c1C(c1ccc(OCC(N)=O)cc1)SCC(=O)N2 (centres undefined)	5.01	> 50.1	> 50.1	> 50.1	> 50.1	> 50.1	> 50.1	> 50.1	0.02	0.0316	> 100	> 100
COc1cc(C2SCC(=O)Nc3c2c(C)nn3-c2nc3ccccc3s2)cc(OC)c1O (centres undefined)	> 50.1	> 50.1	> 50.1	> 50.1	6.31	0.316	0.251	> 50.1	6.31	> 39.8	> 100	5.01
Cc1ccccc1NS(=O)(=O)c1ccc2[nH]cc(C(=O)NC3CCCC(C)C3C)c(=O)c2c1 (centres undefined)	5.01	6.31	3.16	6.31	25.1	15.8	15.8	12.6	0.316	0.631	39.8	5.01
COCCn1cnc2cc(NC(=O)C3CCCCC3)cc(C(=O)N3CCc4sccc4C3)c21	20	31.6	20	> 50.1	> 50.1	> 50.1	> 50.1	> 50.1	0.794	1	> 100	50.1
CCC(=O)Nc1ccccc1C(=O)Nc1ccccn1	> 50.1	> 50.1	> 50.1	> 50.1	> 50.1	> 50.1	> 50.1	> 50.1	0.316	0.398	> 100	> 100
COc1ncc(-c2ccc3nccc(-c4ccncc4)c3c2)cc1NS(=O)(=O)C1CC1	0.316	2.51	2	0.794	1.26	1.26	0.316	1	0.2	0.398	> 100	7.94
Cc1nc(N2CC(C)OC(C)C2)sc1C(=O)Nc1ccc2c(c1)OCO2 (centres undefined)	2	3.98	2.51	> 50.1	6.31	7.94	3.16	> 50.1	39.8	> 39.8	> 100	39.8
N#Cc1cccc(Cc2cc(Nc3cc(C4CC4)[nH]n3)nc(N3CC[C@H]3C(N)=O)n2)c1	0.398	3.98	1	0.00398	0.631	0.2	0.0794	0.0316	0.0398	0.0631	> 100	50.1
